Measured values from paper PMC5390258, “CMD-05, a novel promising clinical anti-diabetic drug candidate, in vivo and vitro studies” (Scientific Reports, 2017).
Read-outs that look alike come from different tables or passages of the source.

Columns and labels:
[1] = test system: Kunming mice; assay: Acute toxicity in mice; format: in vivo
Description: For acute hypoglycemia test, male rats (150–250 g) were used. […].
Acute toxicological signs of included activities, nervous system response, autonomic nervous system response and death of mice were observed after a single oral dose of 2000 mg/kg.

[2] = Pharmacokinetics in rats; format: in vivo, rat
Description: Male SD rats (200–220 g) were fasted overnight to administration of CMD-05 intravenously via tail vein (50 mg/kg, n = 4) or by oral gavage (50 mg/kg, n = 4). Blood samples of 0.3 ml were collected from the orbital venous at 1 min, 3 min, 5 min, 15 min, 30 min, 60 min, 120 min, 240 min, 480 min, 720 min after tail vein injection of CMD-05 and at 15 min, 30 min, 45 min, 60 min, 120 min, 240 min, 480 min, 720 min after oral of CMD-05. Plasma was obtained after centrifugation. The concentrations of CMD-05 in plasma were determined by HPLC method. The pharmacokinetic parameters of CMD-05 in the rats were analyzed by DAS2 software.

[3] = test system: TG, LDL-C; assay: TG and LDL-C plasma levels in model rats; format: in vivo, rat
Description: (§1) To establish model of T2DM, male rats (80–100 g, 9-week-old)[49] were fed high fat diet (HFD) (20% sugar, 10% lard, 10% egg yolk and 60% basal feed) after a week of normal diet. After 4 weeks, rats were injected once with low-dose streptozotocin (Solarbio, China) (STZ, 30 mg/kg i.p) to induce partial insulin deficiency, and then continuously fed HFD for 4 weeks after injection of STZ. Then the model rats were oral administrated drugs for 30 days. The body weights were recorded once a week.
(§2) Oral glucose load, fasted and random blood samples were collected from rats on the 28th days, the 29th days and the last of the treatment of drugs, respectively. Plasma levels of insulin and GLP-1 were measured by ELISA kits (YuanYe, China) according to the manufacturer’s recommendation. The levels of HbA1c, Triglycerides (TG), total cholesterol (TC) and low density lipoprotein cholesterol (LDL-C) in blood samples were measured by commercial assay kits (JianCheng, Nanjing, China) according to the manufacturer’s directions.

[4] = test system: pancreatic islets; assay: Morphologic observation on islet of model rats (HE, immunofluorescence, TEM); format: in vivo, rat
Description: HE staining on paraffin section was performed as described in reports. In brief, paraffin section were rinsed with PBS, fixed with 4% paraformaldehyde (PFA) for 30 min and then washed by PBS. The pancreas tissue were stained with Hematoxylin-Eosin, afterwards, they were dehydrated in alcohols. Morphological changes of the pancreas tissue were observed under an optical microscope (Olympus, Japan) after mounted by neutral resins.
Pancreas sections (8 μm) were cut in a cryostat and collected on superfrost microscope slides. The slides were stored at −20 °C till analysis. Immunofluorescent staining was used for detection of insulin (β cells) (1:100, Anti-Insulin antibody, Abcam), glucagon (α cells) (1:200, Anti-glucagon, Abcam). Briefly, the slides were blocked in 5% normal goat serum for 1 h in a humidified chamber. Slides were exposed to primary antibodies at a dilution of […] in antibody diluting solution at 4 °C overnight, washed in PBS, and exposed to appropriate secondary antibodies linked to the fluorescent probes (Goat Anti-Guinea pig IgG/FITC and Alexa Fluor 594-conjugated Goat Anti-Rabbit IgG) (Bioss and Proteintech, China) in antibody diluting solution for 1 h and DAPI (Beyotime, China) for 5 min in the dark. After washed by PBS, slides were mounted with a glycerol mounting medium. Images were collected using a fluorescent microscope (Nikon, Japan).
For transmission electron microscopy, about 1 mm^3 tissue specimens were obtained from the same pancreas region of the control and experimental groups of rats, and fixed overnight in 2% glutaraldehyde (pH7.3) in 0.1 M phosphate buffer saline at 4 °C. Images of pancreatic islets were captured from random tissue sections using a transmission electron microscope.

[5] = test system: insulin; assay: Plasma insulin levels in model rats (ELISA); format: in vivo, rat; conditions: 1.5 and 4.5 mg/kg, fasted, glucose load and random plasma
Description: as §1, §2

[6] = test system: HT22 cells; assay: Cytotoxicity in HT22 cells (CCK-8); format: cell-based; conditions: 3 × 10^−6 to 3 × 10^−5 M, 12 h
Description: The toxicities of CMD-05 on HT22, 293 and […] cell lines was assessed using Cell Counting Kit-8 (CCK-8) (Biosharp, China). Briefly, the cells were plated on 96-well plates. […] The absorbance at 450 nm was measured using a microplate spectrophotometer.

**Q.** For N#C[C@@H]1CCCN1C(=O)CN(C(=O)CCCCCl)C12CC3CC(CC(O)(C3)C1)C2 [CMD-05], which maximum tolerance dose ([1]; oral) is on record?
**A.** The maximum tolerance dose was > 2000 mg/kg.

**Q.** And the acute toxicity signs ([1]; single oral dose of 2000 mg/kg)?
**A.** Its acute toxicity signs is “no toxicological signs”.

**Q.** What about the “effect of food on pharmacokinetics” value ([2]; healthy rats) of the same molecule?
**A.** Its value is “not affected by food”.

**Q.** And the half-life ([2]; male, SD, rat, plasma, oral, 50 mg/kg, rats, 50 mg/kg, read-out: half-life)?
**A.** The half-life was 4.8 h.

**Q.** And the Tmax ([2]; male, SD, rat, plasma, po, 50 mg/kg, rats, single oral 50 mg/kg, read-out: time to peak plasma concentration (converted))?
**A.** The Tmax was 0.5 h.

**Q.** What about the bioavailability ([2]; male, SD, rat, plasma, rats, 50 mg/kg oral vs intravenous, read-out: absolute bioavailability) of the same molecule?
**A.** The bioavailability was 84.5%.

**Q.** What about the half-life ([2]; rats, 50 mg/kg) of the same molecule?
**A.** Its half-life is 4.798 ± 0.437 h.

**Q.** And the “time to peak plasma concentration” value ([2]; rats, single oral 50 mg/kg, 50 mg/kg)?
**A.** Its value is 30 to 45 min.

**Q.** What about the “reduction of LDL-C level” value ([3]; 0.5 mg/kg) of the same molecule?
**A.** The value was 9%.

**Q.** And the “reduction of TG level” value ([3]; 0.5 mg/kg)?
**A.** Its value is 22.41%.

**Q.** What about the “reduction of LDL-C level” value ([3]; 1.5 mg/kg) of the same molecule?
**A.** The value was 12.60%.

**Q.** And the “reduction of TG level” value ([3]; 1.5 mg/kg)?
**A.** Its value is 37.07%.

**Q.** And the “reduction of LDL-C level” value ([3]; 4.5 mg/kg)?
**A.** Its value is 17.91%.

**Q.** And the “reduction of TG level” value ([3]; 4.5 mg/kg)?
**A.** Its value is 42.67%.

**Q.** What about the plasma lipids levels ([3]; 4.5 mg/kg continuously for 30 days) of the same molecule?
**A.** Its plasma lipids levels is “decreased to normal level”.

**Q.** What about the “distribution of β cells (insulin/glucagon double staining)” value ([4]; 30 days treatment) of the same molecule?
**A.** The value was “obviously improved”.

**Q.** What about the “mass of α-cells (insulin/glucagon double staining)” value ([4]; 30 days treatment) of the same molecule?
**A.** Its value is “mildly reduced”.

**Q.** And the “morphology of pancreatic islets (HE staining)” value ([4]; 30 days treatment)?
**A.** The value was “prevent islet from damage”.

**Q.** What about the “secretory granules in β cells (transmission electron microscopy)” value ([4]; compared with the model) of the same molecule?
**A.** The value was “obviously increased”.

**Q.** And the “insulin levels in plasma” value [5]?
**A.** Its value is “significantly increased”.

**Q.** What about the “cytotoxicity (cell viability)” value [6] of the same molecule?
**A.** Its value is “did not induce significant cytotoxicity”.
